For assay [1], the target named is T1, 5-hydroxytryptamine receptor 1A (Rattus norvegicus, UniProt P19327).
T1 sequence (P19327 whole entry): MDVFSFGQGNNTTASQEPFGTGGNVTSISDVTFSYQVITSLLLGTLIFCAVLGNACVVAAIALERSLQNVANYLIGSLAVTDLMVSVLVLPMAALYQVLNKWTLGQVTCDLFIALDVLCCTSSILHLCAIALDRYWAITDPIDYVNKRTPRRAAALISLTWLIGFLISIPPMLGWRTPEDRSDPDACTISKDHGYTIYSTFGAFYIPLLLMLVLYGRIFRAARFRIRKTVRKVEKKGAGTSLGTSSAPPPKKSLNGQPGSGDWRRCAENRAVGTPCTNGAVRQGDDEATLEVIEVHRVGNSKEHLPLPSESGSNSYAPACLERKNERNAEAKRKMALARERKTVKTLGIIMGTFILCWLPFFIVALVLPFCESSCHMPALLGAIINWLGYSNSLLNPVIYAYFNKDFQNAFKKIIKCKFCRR
Description: Displacement of [3H]8-OH-DPAT from 5-hydroxytryptamine 1A receptor of rat hippocampus mambranes. Format: tissue-based. For orientation: Loss of bound radioactivity is the signal in a displacement assay; it reports binding, not function.

Assay [2] concerns the target T2, 5-hydroxytryptamine receptor 2A (Rattus norvegicus, UniProt P14842). Description: Binding affinity against 5-hydroxytryptamine 2A receptor by displacement of [3H]ketanserin from rat prefrontal cerebral cortex mambranes. Format: tissue-based, Frontal cortex.
The target in assay [3] is T3, Sodium-dependent serotonin transporter (Rattus norvegicus, UniProt P31652). Description: Binding affinity against serotonin transporter (SERT) by displacement of [3H]paroxetine in male wistar rats.
T3 sequence (P31652 whole entry): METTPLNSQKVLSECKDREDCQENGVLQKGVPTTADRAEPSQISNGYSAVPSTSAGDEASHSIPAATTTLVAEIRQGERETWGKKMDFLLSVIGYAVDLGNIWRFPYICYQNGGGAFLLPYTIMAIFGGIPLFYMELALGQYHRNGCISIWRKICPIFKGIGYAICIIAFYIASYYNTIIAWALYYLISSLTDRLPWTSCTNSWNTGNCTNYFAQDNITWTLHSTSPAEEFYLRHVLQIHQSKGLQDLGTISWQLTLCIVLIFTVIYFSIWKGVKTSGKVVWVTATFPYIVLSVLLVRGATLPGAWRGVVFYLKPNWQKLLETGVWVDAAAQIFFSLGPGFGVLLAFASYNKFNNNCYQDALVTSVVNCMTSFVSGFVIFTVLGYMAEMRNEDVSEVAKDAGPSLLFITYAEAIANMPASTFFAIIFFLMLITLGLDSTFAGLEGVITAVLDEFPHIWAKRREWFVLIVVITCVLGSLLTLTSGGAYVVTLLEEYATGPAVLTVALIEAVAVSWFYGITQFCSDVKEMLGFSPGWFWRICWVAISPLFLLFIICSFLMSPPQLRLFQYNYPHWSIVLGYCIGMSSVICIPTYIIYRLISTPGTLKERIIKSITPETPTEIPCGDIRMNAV
In assay [4] the target is T1, 5-hydroxytryptamine receptor 1A. Description: Binding affinity against 5-hydroxytryptamine 1A receptor (5-HT1A) by displacement of [3H]8-OH-DPAT from rat hippocampus membranes. Format: cell membranes, Membrane.
For assay [5], the target named is T3, Sodium-dependent serotonin transporter. Description: Binding affinity against serotonin transporter (SERT) by displacement of [3H]paroxetine in male wistar rat.
The target is the same in assay [6]. Description: Binding affinity to the serotonin transporter (SERT) measured by displacement of [3H]paroxetine in male wistar rats.
The target of assay [7] is T2, 5-hydroxytryptamine receptor 2A. Description: Binding affinity against 5-hydroxytryptamine 2A receptor by displacement of [3H]-ketanserin from rat prefrontal cerebral cortex mambranes. Format: tissue-based, Frontal cortex.
The target of assay [8] is Sodium-dependent dopamine transporter (Rattus norvegicus, UniProt P23977). Description: Binding affinity against dopamine transporter (DAT) by displacement of [3H]WIN-35428 in male wistar rats.
Sodium-dependent dopamine transporter, sequence (P23977 whole entry): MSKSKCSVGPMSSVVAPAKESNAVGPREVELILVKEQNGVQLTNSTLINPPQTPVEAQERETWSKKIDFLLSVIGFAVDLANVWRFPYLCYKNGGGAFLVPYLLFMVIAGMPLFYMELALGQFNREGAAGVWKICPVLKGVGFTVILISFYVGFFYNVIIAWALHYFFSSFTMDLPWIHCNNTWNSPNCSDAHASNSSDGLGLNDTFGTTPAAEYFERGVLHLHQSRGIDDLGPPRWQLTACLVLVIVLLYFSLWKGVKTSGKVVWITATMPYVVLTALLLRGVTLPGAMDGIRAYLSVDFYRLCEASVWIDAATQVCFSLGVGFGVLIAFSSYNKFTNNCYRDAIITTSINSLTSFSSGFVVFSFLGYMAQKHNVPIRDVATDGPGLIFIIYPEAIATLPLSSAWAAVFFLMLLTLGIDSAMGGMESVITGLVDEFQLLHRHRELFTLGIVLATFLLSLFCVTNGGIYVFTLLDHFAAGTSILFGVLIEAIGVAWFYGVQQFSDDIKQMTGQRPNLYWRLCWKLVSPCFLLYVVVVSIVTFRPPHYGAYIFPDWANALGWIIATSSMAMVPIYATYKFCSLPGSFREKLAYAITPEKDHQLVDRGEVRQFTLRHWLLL
The target of assay [9] is Norepinephrine transporter (Rattus norvegicus, UniProt Q9WTR4). Description: Binding affinity against norepinephrine transporter (NET) by displacement of [3H]nisoxetine in male wistar rats.
Norepinephrine transporter, sequence (Q9WTR4 whole entry): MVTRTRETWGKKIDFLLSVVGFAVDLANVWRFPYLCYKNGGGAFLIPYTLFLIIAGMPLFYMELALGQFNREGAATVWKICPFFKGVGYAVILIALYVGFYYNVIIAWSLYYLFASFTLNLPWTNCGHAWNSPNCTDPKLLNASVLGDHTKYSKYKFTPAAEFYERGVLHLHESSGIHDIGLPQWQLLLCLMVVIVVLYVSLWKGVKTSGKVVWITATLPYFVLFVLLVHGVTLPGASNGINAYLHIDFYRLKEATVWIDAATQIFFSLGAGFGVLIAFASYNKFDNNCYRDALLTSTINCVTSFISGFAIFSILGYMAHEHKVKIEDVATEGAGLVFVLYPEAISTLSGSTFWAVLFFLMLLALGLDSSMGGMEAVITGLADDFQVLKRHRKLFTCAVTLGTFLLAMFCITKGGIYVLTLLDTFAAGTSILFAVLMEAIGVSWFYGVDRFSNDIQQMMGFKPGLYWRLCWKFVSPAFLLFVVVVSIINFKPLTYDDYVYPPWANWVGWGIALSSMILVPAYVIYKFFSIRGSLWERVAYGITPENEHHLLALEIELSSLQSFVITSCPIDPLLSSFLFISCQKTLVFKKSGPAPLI

T2 sequence (P14842 whole entry): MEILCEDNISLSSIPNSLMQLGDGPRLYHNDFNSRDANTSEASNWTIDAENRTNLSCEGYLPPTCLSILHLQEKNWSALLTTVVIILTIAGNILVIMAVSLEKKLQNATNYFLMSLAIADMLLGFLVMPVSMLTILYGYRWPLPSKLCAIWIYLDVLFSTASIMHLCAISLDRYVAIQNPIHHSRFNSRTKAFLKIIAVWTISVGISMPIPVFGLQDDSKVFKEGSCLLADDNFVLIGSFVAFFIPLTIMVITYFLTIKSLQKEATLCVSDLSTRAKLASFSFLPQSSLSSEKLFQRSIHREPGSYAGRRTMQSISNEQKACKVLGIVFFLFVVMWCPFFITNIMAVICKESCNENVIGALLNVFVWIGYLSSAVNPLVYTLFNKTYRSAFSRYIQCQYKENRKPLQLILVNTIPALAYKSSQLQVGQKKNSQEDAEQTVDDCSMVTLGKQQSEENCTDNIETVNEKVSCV

Broadly, the Ki is a measure of affinity in units of concentration, obtained from inhibition or displacement. Read a low Ki as a stronger hold on the target. The IC50 is the concentration that inhibits the measured activity by half. Lower therefore signals inhibition by little substance. As to `FC(F)(F)c1ccccc1OC(CCN1CCN(c2nsc3ccccc23)CC1)c1ccccc1` (stereo unspecified), the Ki in assay [1] is 446 nM; in [2], 24.1 nM. Moreover, the IC50 in assay [3] is > 1000 nM.

On to `Nc1ccc(OC(CCC(=O)C2CCN(c3ccc(F)cc3)CC2)c2ccc(F)cc2)cc1` (stereo unspecified), for which the concentration for half-maximal inhibition (IC50) in assay [4] and in [3] was > 1000 nM throughout. In assay [2], the inhibition constant (Ki) was 14.4 nM.

For the molecule `FC(F)(F)c1ccc(OC(CCN2CCN(c3nsc4ccccc34)CC2)c2ccccc2)cc1` (stereo unspecified), the inhibitory constant (Ki) in [1] amounted to 33.7 nM; in assay [2] it was 40.2 nM. The IC50 in assay [3] was > 1000 nM.

As for `c1ccc(-c2ccccc2OC(c2ccccc2)C2CCNCC2)cc1` (stereo unspecified), the IC50 in assay [4] and in [3] was > 1000 nM throughout. The molecule further displayed a Ki in assay [2] of 149 nM.

Consider `Fc1ccccc1OC(CCN1CCN(c2nsc3ccccc23)CC1)c1ccccc1` (stereo unspecified), for which the results for the Ki in [1] and in assay [2] were 70.2 nM and 5.3 nM, respectively. For the same molecule, the IC50 in assay [5] was > 1000 nM.

Take `O=C(CCC(Oc1ccc([N+](=O)[O-])cc1)c1ccccc1)C1CCN(c2ccc(F)cc2)CC1` (stereo unspecified): the IC50 in assay [4] and in assay [3] was > 1000 nM in each case. Besides, the Ki in assay [2] was 23 nM.

`O=[N+]([O-])c1ccc(OC(CCN2CCN(c3n[o+][c-]4ccccc34)CC2)c2ccccc2)cc1` (stereo unspecified): the inhibition constant Ki in [1] is 254 nM; in assay [2], 53.3 nM. In assay [3], the concentration for half-maximal inhibition (IC50) is > 1000 nM.

For `COc1ccc(OC(CCN2CCN(c3noc4ccccc34)CC2)c2ccccc2)cc1` (stereo unspecified), the inhibition constant Ki in [1] came out at 182 nM; in assay [2], 18.9 nM. Moreover, in assay [3], the IC50 is > 1000 nM.

In the case of `O=C(CCC(Oc1ccc([N+](=O)[O-])cc1)c1ccc(F)cc1)C1CCN(c2ccc(F)cc2)CC1` (stereo unspecified), the IC50 in assay [4] and in assay [3] was > 1000 nM in each case. Further, in assay [2], the Ki turned out to be 55.1 nM.

Consider `COc1ccc(OC(CCN2CCN(c3nsc4ccccc34)CC2)c2ccccc2)cc1` (stereo unspecified), for which the inhibition constant (Ki) in [1] came out at 69.7 nM; in assay [2], 10.2 nM. In addition, the IC50 in [3] is > 1000 nM.

With `Fc1ccc(OC(CC2CCNCC2)c2ccccc2)cc1` (stereo unspecified), the IC50 in assay [4] was > 1000 nM. The values for the inhibition constant Ki in [2] and in assay [6] were 140 nM and 78.3 nM, respectively.

For the molecule `FC(F)(F)c1cccc(OC(CCN2CCN(c3nsc4ccccc34)CC2)c2ccccc2)c1` (stereo unspecified), the concentration for half-maximal inhibition (IC50) in [4] and in assay [3] was > 1000 nM each time. In assay [2], this molecule had a Ki of 28.2 nM.

Turning to `Fc1ccc(OC(CC2CCNCC2)c2ccc(F)cc2)cc1` (stereo unspecified), the 50% inhibitory concentration (IC50) in assay [4] was > 1000 nM. In addition, the Ki in assay [2] was found to be 194 nM; in assay [6], 67.7 nM.

`O=C(CCC(Oc1ccccc1F)c1ccccc1)C1CCN(c2ccc(F)cc2)CC1` (stereo unspecified): the Ki in assay [1] was found to be 37.8 nM; in [2], 8 nM. Further, the concentration for half-maximal inhibition (IC50) in assay [3] is > 1000 nM.

With `Fc1ccc(OC(c2cccc(F)c2)C2CCNCC2)cc1` (stereo unspecified), the half-maximal inhibitory concentration (IC50) in assay [4] is > 1000 nM. In addition, the Ki came out at 360 nM in assay [2] and 5.8 nM in assay [6].

`Fc1ccccc1OC(CCN1CCN(c2noc3ccccc23)CC1)c1ccccc1` (stereo unspecified): the Ki in assay [1] was 118 nM; in [2] it was 17.2 nM. For the same molecule, the IC50 in [3] was > 1000 nM.

Turning to `CN1CCC(C(Oc2ccc(F)cc2)c2ccccc2)CC1` (stereo unspecified), the IC50 in [4] and in assay [3] was > 1000 nM each time. This molecule also yielded a Ki in assay [2] of 44.4 nM.

`COc1ccc(OC(CCC(=O)C2CCN(c3ccc(F)cc3)CC2)c2ccccc2)cc1` (stereo unspecified): the Ki in assay [1] came out at 93.6 nM; in assay [2] it was 53.8 nM. Also, the IC50 in assay [3] is > 1000 nM.

As for `Nc1ccc(OC(CCC(=O)C2CCN(c3ccc(F)cc3)CC2)c2ccccc2)cc1` (stereo unspecified), the inhibitory constant (Ki) in assay [1] was determined as 108 nM; in assay [2] it was 16.4 nM. Moreover, in assay [3], the concentration for half-maximal inhibition (IC50) was > 1000 nM.

In the case of `Fc1ccccc1OC(c1ccccc1)C1CCNCC1` (single isomer, unassigned; (+)), the half-maximal inhibitory concentration (IC50) in assay [4] and in assay [7] was > 1000 nM each time. In addition, the values for the inhibition constant (Ki) in [8], in assay [9] and in assay [6] were 520 nM, 41.4 nM and 28.5 nM, respectively.

For the molecule `O=[N+]([O-])c1ccc(OC(c2ccccc2)C2CCNCC2)cc1` (single isomer, unassigned; (+)), the 50% inhibitory concentration (IC50) in assay [4], in assay [7], in assay [8] and in [9] was > 1000 nM in each case.

Consider `c1ccc(C(Oc2cccc3ccccc23)C2CCNCC2)cc1` (single isomer, unassigned; (+)), for which the 50% inhibitory concentration (IC50) in assay [4], in assay [7] and in [8] was > 1000 nM in each case. Besides, the inhibitory constant (Ki) in assay [9] amounted to 417 nM; in assay [6], 20.1 nM.

As to `Fc1cccc(C(Oc2ccccc2F)C2CCNCC2)c1` (single isomer, unassigned; (+)), the 50% inhibitory concentration (IC50) in assay [4] and in assay [7] was > 1000 nM throughout. The Ki in [9] was determined as 48.1 nM.

In the case of `Brc1ccc(OC(c2ccccc2)C2CCNCC2)cc1` (single isomer, unassigned; (+)), the half-maximal inhibitory concentration (IC50) in [4], in assay [7], in assay [8] and in assay [9] was > 1000 nM in each case. The inhibition constant (Ki) in assay [6] came to 23.2 nM.

On to `Fc1ccccc1OC(c1ccccc1)C1CCNCC1` (single isomer, unassigned; (-)), for which the half-maximal inhibitory concentration (IC50) in [4], in assay [7] and in assay [8] was > 1000 nM in each case. The Ki in assay [9] was found to be 22.5 nM.

For the molecule `O=[N+]([O-])c1ccc(OC(c2ccccc2)C2CCNCC2)cc1` (single isomer, unassigned; (-)), the IC50 in assay [4] is > 1000 nM; in assay [7], > 1000 nM; in assay [8], > 1000 nM; in assay [9], > 500 nM. In [6], this molecule returned a Ki of 0.6 nM.

Turning to `Fc1cccc(C(Oc2ccccc2F)C2CCNCC2)c1` (single isomer, unassigned; (-)), the concentration for half-maximal inhibition (IC50) is > 1000 nM in [4], > 1000 nM in assay [7] and > 500 nM in assay [8]. Besides, the inhibition constant (Ki) stood at 19.1 nM in assay [9] and 4.3 nM in [6].

`FC(F)(F)c1ccc(OC(c2ccccc2)C2CCNCC2)cc1` (single isomer, unassigned; (-)): the IC50 in [8] and in assay [9] was > 1000 nM in each case.

As to `Brc1ccc(OC(c2ccccc2)C2CCNCC2)cc1` (single isomer, unassigned; (-)), the IC50 in [4] was > 1000 nM; in [7], > 1000 nM; in assay [8], > 1000 nM; in assay [9], > 500 nM. In assay [6], this molecule returned an inhibitory constant (Ki) of 5.7 nM.

Consider `Fc1cccc(OC(c2ccccc2)C2CCNCC2)c1` (stereo in doubt; (+)-15j), for which the concentration for half-maximal inhibition (IC50) in assay [4] and in [7] was > 1000 nM throughout. The inhibitory constant (Ki) in [8] is 163 nM; in assay [9] it was 98.3 nM.

For the molecule `Fc1ccc(OC(c2ccccc2)C2CCNCC2)cc1` (stereo in doubt; (+)-15p), the IC50 in [4] and in [7] was > 1000 nM each time. Besides, the inhibition constant (Ki) came to 821 nM in [8] and 0.4 nM in [6].

Consider `FC(F)(F)c1ccc(OC(c2ccccc2)C2CCNCC2)cc1` (stereo in doubt; (+)-15q), for which the half-maximal inhibitory concentration (IC50) in [8] and in assay [9] was > 1000 nM each time.

For the molecule `c1ccc(C(Oc2cccc3ccccc23)C2CCNCC2)cc1` (stereo in doubt; (-)-15au), the 50% inhibitory concentration (IC50) in [4], in assay [7], in assay [8] and in [9] was > 1000 nM each time. This molecule also registered a Ki in assay [6] of 28.1 nM.

Consider `Fc1cccc(OC(c2ccccc2)C2CCNCC2)c1` (stereo in doubt; (-)-15j), for which the IC50 in assay [4] and in assay [7] was > 1000 nM throughout. Moreover, the affinity in assay [9] corresponds to a Ki of 13.5 nM.

In the case of `CCCN(CCC)C1CCc2cccc(O)c2C1` (stereo unspecified) [8-OH-DPAT], the half-inhibitory concentration (IC50) in assay [7], in [8], in assay [9] and in assay [3] was > 1000 nM throughout.

With `OC1(c2ccc(Cl)cc2)c2ccccc2C2=NCCN21` (stereo unspecified) [MAZINDOL], the IC50 in assay [4] and in assay [7] was > 1000 nM each time. For the same molecule, the Ki amounted to 44.3 nM in assay [8], 0.8 nM in assay [9] and 248 nM in assay [6].

Consider `CN1CCN2c3ncccc3Cc3ccccc3C2C1` (stereo unspecified) [MIRTAZAPINE], for which the half-maximal inhibitory concentration (IC50) in [4], in assay [8], in assay [9] and in assay [3] was > 1000 nM each time.

The values are drawn from ChEMBL document CHEMBL1145929, “Syntheses and binding studies of new [(aryl)(aryloxy)methyl]piperidine derivatives and related compounds as potential antidepressant drugs with high affinity for serotonin (5-HT) and norepinephrine (NE) transporters” (J Med Chem, 2003).
